Laboratory results taken from patent publication US8629251B2, “Specific detection and quantification of phosphatidic acid using an Arabidopsis trigalactosyldiacylglycerol-4 (TGD4) protein” (Board of Trustees of Michigan State University, priority 2008, dated 2014).
Where no end group is shown, it is not given here.

Experiments:
[1] = target: T1, Arabidopsis TGD4, DsRED-TGD4-His, full-length TGD4 1-479 (SEQ ID NO: 132) (Arabidopsis thaliana, UniProt Q9M903); experiment: Liposome association assay, DsRED-TGD4-His; assay type: binding; settings: 40 mol % PtdOH and 60 mol % PtdCho liposomes, FIG. 18C, D
T1 sequence (Q9M903 1-479): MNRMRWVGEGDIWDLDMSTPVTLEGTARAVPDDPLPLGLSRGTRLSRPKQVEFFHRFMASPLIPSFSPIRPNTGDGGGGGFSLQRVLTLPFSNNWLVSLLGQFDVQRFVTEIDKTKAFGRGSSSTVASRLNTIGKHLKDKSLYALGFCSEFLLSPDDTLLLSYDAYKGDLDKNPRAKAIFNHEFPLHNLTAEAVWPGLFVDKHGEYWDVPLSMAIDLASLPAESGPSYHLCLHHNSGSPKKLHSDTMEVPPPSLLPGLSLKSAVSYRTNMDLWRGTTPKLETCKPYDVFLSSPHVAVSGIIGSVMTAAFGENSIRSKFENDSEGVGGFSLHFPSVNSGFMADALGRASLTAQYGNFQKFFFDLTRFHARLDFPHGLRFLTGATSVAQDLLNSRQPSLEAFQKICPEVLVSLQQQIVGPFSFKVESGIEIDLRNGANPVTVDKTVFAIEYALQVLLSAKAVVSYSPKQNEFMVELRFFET
Experimental: Liposome Association Assay:
(§1) The liposome association assay was adapted from (Awai et al., 2006, Lu and Benning, 2009) with minor modifications. Dioleoyl-PtdCho and PtdOH with different acyl chain lengths and desaturation levels were used for making liposomes. In other liposomes 1-palmitoyl-2-(12-((7-nitro-2-1,3-benzoxadiazol-4-yl)amino)dodecanoyl)-sn-glycero-3-phosphate (NBD-PtdOH; Avanti, Alabaster, Ala.) was used. The lipids were mixed at indicated ratios to give a total lipid amount of 250 μg. The lipids were dried under a stream of nitrogen, resuspended in 0.5 ml TBS buffer with 0.2 M choline chloride and hydrated at 37° C. for 1 hour followed by vigorous vortexing for 2 minutes. The resulting multi-lamellar vesicles were centrifuged at 13,000×g for 10 minutes and then washed once with TBS buffer containing 0.2 M choline chloride. The liposomes were resuspended into 100 μl TBS buffer with 0.2 M choline chloride and incubated with 2 μg purified DsRED-TGD4-His protein and its derivatives. The protein liposome mixture was incubated on ice for 30 minutes followed by centrifugation at 13,000×g for 10 minutes and two washes with 500 μl TBS containing 0.2 M choline chloride. The resulting protein-liposome pellet was resuspended in 20 μl 2× Laemmli buffer (Laemmli, 1970) and processed by SDS-PAGE (Shapiro and Maizel, 1969).

[2] = target: T2, Arabidopsis TGD2, N-terminally truncated TGD2-dTMD-His (from Gly-119) (Arabidopsis thaliana, UniProt Q9LTR2); experiment: Liposome binding assay, TGD2-dTMD-His; settings: phosphatidylcholine liposomes with or without PA (6:4 wt/wt)
T2 sequence (Q9LTR2 119-381): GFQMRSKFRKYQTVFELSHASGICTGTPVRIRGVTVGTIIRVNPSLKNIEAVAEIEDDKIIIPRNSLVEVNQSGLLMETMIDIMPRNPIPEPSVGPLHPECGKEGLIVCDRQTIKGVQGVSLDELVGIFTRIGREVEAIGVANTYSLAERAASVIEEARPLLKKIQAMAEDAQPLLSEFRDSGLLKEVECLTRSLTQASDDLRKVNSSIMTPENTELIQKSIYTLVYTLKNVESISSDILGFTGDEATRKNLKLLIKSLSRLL
Experimental: The liposome binding assay was performed as previously reported. Sano et al., (1998) J. Biol. Chem. 273:4783-4789. Lipids (i.e., for example, phosphatidylcholine or a mixture of phosphatidylcholine and PA at 6:4 wt/wt) were incubated in TBS (50 mM Tris/HCl, pH 7/0.1M NaCl) at 37° C. for 1 hour followed by vigorous vortexing for 5 min. The liposomes were precipitated at 20,000×g and washed twice with ice-cold TBS.
Liposomes (200 μg) were mixed with purified TGD2 protein lacking the TMD (10 μg/ml) and TBS to make 100 μl of solution. The mixture was incubated at 30° C. for 30 min and washed twice with ice-cold TBS by centrifugation at 20,000×g at 4° C. The liposome pellet mixed with sample buffer was analyzed by SDS/PAGE. Laemmli, U. K. (1970) Nature 227, 680-685. Immunodetection of the His-tagged protein was accomplished by using the above-mentioned Penta-His antibody at 1:6,000 and the anti-mouse antibody at 1:10,000 dilutions. The BCIP/NBT Kit from Bio-Rad was used for color detection.

[3] = target: T3, Arabidopsis TGD2, DsRed-TGD2C WT (DR-WT) fusion protein, residues 119-381, SEQ ID NO:107 (Arabidopsis thaliana, UniProt Q9LTR2); experiment: Liposome-association assay (mixed PA/PC liposomes), DsRed-TGD2C WT; assay type: binding; settings: PC, PA/PC or PA liposomes, FIG. 3B
T3 construct: made in house; host or cells: Escherichia coli BL21 (DE3)
T3 sequence (Q9LTR2 119-381): T2 sequence (Q9LTR2 119-381)
Experimental: FIG. 2A: Analysis by liposome-association assay. A mixture of dioleoyl-PA and dioleoyl-PC was used where the weight percent of PA was varied from 0-100% (wt/wt), maintaining the total lipid invariant at 250 μg. 1 μg protein was used. P, protein recovered in the absence of lipids.
(§2) In this assay, purified recombinant proteins were incubated with liposomes for 30 min at 30° C. before centrifugation at 20,000 g for 10 min to pellet the liposomes. Proteins bound to the liposomes were found associated with the lipid pellet, whereas non-binding proteins remained in the supernatant. In an effort to determine the optimal concentration of PA required for high specificity binding, a PA/PC liposome mixture containing varying weight fractions of PA was prepared and incubated with DsRed-TGD2CWT or DsRed alone.
(§3) The liposome association assay was performed as previously reported. (31). Briefly, lipids (dioleoyl-phosphatidylcholine, DOPC or dioleoyl-PA, DOPA) were incubated in TBS (50 mM Tris-HCl, pH 7; 0.1 M NaCl) at 37° C. for an hour followed by vigorous vortexing for 5 min. The liposomes were precipitated at 20,000 g and washed twice with ice-cold TBS.
(§4) Liposomes (200 μg) were mixed with purified DsRed-TGD2 fusion protein and TBS to make a final 100 μL solution. The mixture was incubated at 30° C. for 30 min and washed twice with ice-cold TBS by centrifugation at 20,000 g at 4° C. The liposome pellet mixed with sample buffer was analyzed by SDS-PAGE (28). Immuno-detection of the His-tagged protein was accomplished using the above mentioned Penta-His antibody at 1:15,000 and the anti mouse antibody at 1:75,000 dilution.
(§5) The protein band was visualized by chemiluminescent detection kit from Sigma. The autoradiography film was scanned, distinct protein bands were quantified using computer software Multi Gauge V3.0 (Fujifilm USA, Valhalla, N.Y.) and resulted data were plotted and analyzed by OriginPro8 (Origin lab corporation, Northampton, Mass.).

[4] = target: Arabidopsis TGD2, DsRed fusion of the 25-mer minimal domain (residues 201-225, SEQ ID NO:12), K221A (Arabidopsis thaliana, UniProt Q9LTR2, K221A); experiment: Liposome-association assay, point mutant K221A of the minimal domain; assay type: binding; settings: PC liposomes; any of the constructs
Experimental: Some reports have identified that TGD2 PA-binding regions involve basic amino acids and/or tryptophan residues (10). […] Based on sequence similarity of TGD2 to its closely related homologs in plants and green algae, several charged and/or conserved amino acids were picked as potential interesting residues in the 25-mer minimal domain for possibly mediating interactions with PA. An alanine screen was then performed to evaluate these residues within a minimal PA binding region of TGD2 (i.e., for example, SEQ ID NO:12). Point mutations were generated in the 25-mer minimal domain and fused with DsRed to test PA binding by liposome-association assay using 100% PA liposomes.
The liposome association assay was performed as previously reported. (31). […]
(§6) Liposomes (200 μg) were mixed with purified DsRed-TGD2 fusion protein and TBS to make a final 100 μL solution. […] The liposome pellet mixed with sample buffer was analyzed by SDS-PAGE (28). […]
as §5

[5] = tested on: DsRed protein (Discosoma sp. red fluorescent protein); experiment: Liposome-association assay, DsRed control; assay type: binding; settings: FIG. 3B
Experimental: as §3, §4, §5

DsRED-TGD4-His = target: T4, DsRED-TGD4-His (Arabidopsis thaliana, UniProt Q9M903); experiment: Precipitation / stabilizer test of DsRED-TGD4-His; assay type: physicochemical; settings: 5 μg protein with stabilizer, 4° C., 2 hours, 13,000×g pellet by SDS-PAGE
T4 construct: the DsRED protein was fused to the N-terminus of the full-length TGD4 protein; made in house; host or cells: E. coli BL21 (DE3)
T4 sequence (Q9M903 1-479): T1 sequence (Q9M903 1-479)
Experimental: FIG. 23A: 5 μg DsRED-TGD4-His was incubated with various protein stabilizers at 4° C. for 2 hours followed by centrifugation at 13,000×g for 10 minutes. The pellet was analyzed by SDS-PAGE. TBS: Tris-buffered saline, Glycerol: 20% glycerol; PEG: 20% polyethylene; Pectin: 5% pectin; ChoCl: 1 M choline chloride; Glycine: 1 M glycine; Urea: 1 M urea; BSA: 0.5 mg/ml bovine serum albumin; PBS: phosphate-buffered saline.
FIG. 23B: 5 μg DsRED-TGD4-His was treated with either 2 M sodium chloride or choline chloride as described above.
Lipid binding properties of TGD4 were investigated by producing TGD4 fused to DsRED. The DsRED protein is a red fluorescent protein of the coral Discosoma sp. (Gross et al., 2000, herein incorporated by reference).

[6] = Liposome-association assay of DsRed-TGD2 fusion proteins; assay type: binding; settings: PA/PC or 100% PA liposomes
Experimental: as §2, §3, §6, §5

[7] = Liposome association assay of DsRED-TGD4-His and derivatives; assay type: binding; settings: dioleoyl-PtdOH/dioleoyl-PtdCho liposomes, 0 to 80% PtdOH by weight, FIG. 19
Experimental: as §1

[8] = Protein-lipid overlay assay of DsRED-TGD4 fusion proteins; assay type: binding
Experimental: The protein-lipid overlay assay was modified from (Awai et al., 2006, Lu and Benning, 2009). Phosphoinositol-4,5-bisphosphate PIP2) lipid strips were purchased from Echelon Biosciences (Salt Lake City, Utah). Lipids spotted onto membranes were purchased from Avanti Polar Lipids (Alabaster, Al.) as well as Larodan Fine Chemicals (Malmo, Sweden). Lipids (10 nmol) were suspended in 20 μl spotting buffer (250 μl chloroform, 500 μl methanol, 200 μl 50 mM HCl, 2 μl 1% (w/v) Ponseau S (Sigma, St. Louis, Mo.)) and spotted onto Amersham Hybond-C Extra membranes (GE Healthcare, Piscataway, N.J.) followed by drying for 1 hour in a fume hood. The lipid membranes were then blocked in 3% (w/v) bovine serum albumin (BSA) in TBST buffer (TBS with 0.25% (v/v) Tween 20) for 2 hours at room temperature. Purified DsRED-TGD4-His fusion proteins were added at 1 μg/ml final concentration and incubated overnight at 4° C. followed by washing 3 times in TBST. Lipid membranes were then incubated with 1:2000 diluted His antibody (Sigma) in blocking buffer for 2 hours at room temperature followed by 2 washes with TBST. The membranes were processed for immunoblotting as described below.

Sequence of Arabidopsis TGD2, DsRed fusion of the 25-mer minimal domain (residues 201-225, SEQ ID NO:12), K221A (Q9LTR2 201-225 K221A): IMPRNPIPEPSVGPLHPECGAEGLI

For CCCCCCCCCCCCCCCC(=O)OC[C@H](COP(=O)(O)O)OC(=O)CCCCCCCCCCCNc1ccc([N+](=O)[O-])c2nonc12 [1-palmitoyl-2-(12-((7-nitro-2-1,3-benzoxadiazol-4-yl)amino)dodecanoyl)-sn-glycero-3-phosphate], the “binding to PtdOH species in liposomes” value [1] was “did not bind”.

For CCCCCCCCCCCCCCCC(=O)OC[C@H](COP(=O)(O)O)OC(=O)CCCCCCCCCCCCCCC [dipalmitoyl PtdOH, dipalmitoyl phosphatidic acid], the “binding to PtdOH species in liposomes” value [1] was “bind”.

For CCCCCCCC/C=C\CCCCCCCC(=O)OC[C@H](COP(=O)([O-])OCC[N+](C)(C)C)OC(=O)CCCCCCC/C=C\CCCCCCCC [PC, phosphatidylcholine], the liposome binding [2] was “did not bind”, the “binding to PA or PC” value [3] was “no interaction” and the PC-liposome binding [4] was “No detectable PC-liposome binding”. The “binding to PC or PA” value [5] was “does not display binding”.

In the case of [Cl-].[Na+] [NaCl, sodium chloride], the “stabilization of DsRED-TGD4-His against precipitation” value (shortened to “stabilization of DsRED-TGD4-His”) (DsRED-TGD4-His) is reported as “not able to stabilize DsRED-TGD4-His”.

For C[N+](C)(C)CCO.[Cl-] [Choline chloride, choline chloride], the “stabilization of DsRED-TGD4-His” value (DsRED-TGD4-His) was “minimize precipitation” and the “stabilization of DsRED-TGD4-His” value (DsRED-TGD4-His; listed as choline chloride) was “stabilized DsRED-TGD4-His”.

For “DR-25: DsRed fused to the TGD2 minimal PA binding domain, residues 201-225 (SEQ ID NO: 12) (IMPRNPIPEPSVGPLHPECGKEGLI; also: fused to DsRed, end not given here; UniProt Q9LTR2 201-225, looked up, fragment)”, the “PA binding in liposome-association assay” value ([6]; listed as 25-amino-acid segment) was “necessary and sufficient for PtdOH binding” and the “PA binding in liposome-association assay” value ([6]; listed as region between residues 201 and 225 (SEQ ID NO:12)) was “much less overall binding”.

For CCCCCCCCCCCCCCCCCC(=O)OC[C@H](COP(=O)(O)O)OC(=O)CCCCCCCCCCCCCCCCC [distearoyl PtdOH, distearoyl phosphatidic acid], the “binding to PtdOH species in liposomes” value [1] was “appeared to be stronger”.

B1: DsRED-His: DsRED-His protein itself, control without TGD4 (protein, UniProt Q9U6Y8 1-225, looked up)
Red fluorescent protein …: MRSSKNVIKEFMRFKVRMEGTVNGHEFEIEGEGEGRPYEGHNTVKLKVTKGGPLPFAWDILSPQFQYGSKVYVKHPADIPDYKKLSFPEGFKWERVMNFEDGGVVTVTQDSSLQDGCFIYKVKFIGVNFPSDGPVMQKKTMGWEASTERLYPRDGVLKGEIHKALKLKDGGHYLVEFKSIYMAKKPVQLPGYYYVDSKLDITSHNEDYTIVEQYERTEGRHHLFL
modifications: His-tag
notes: DsRED-His protein itself, control without TGD4
In the case of B1, the “PtdOH binding affinity of TGD4 derivatives” value [7] is reported as “Except for DsRED-His alone, tested recombinant fusion proteins bound to PtdOH-containing liposomes”, the “lipid binding in overlay, phospholipids” value ([8]; commercially available membranes, FIG. 18A) is reported as “not observed to bind to any of the lipids on either membrane tested” and the “lipid binding in overlay, plant/chloroplast lipids” value ([8]; lipids manually spotted onto membranes, FIG. 18B) is reported as “not observed to bind to any of the lipids on either membrane tested”.
